# Reference: patent publication US20090197944A1, “AGENT FOR IMPROVING MUSCLE FORCE” (KAO CORPORATION, priority 2006, published 2009)
# Test system: isolated soleus muscle
# Experiment: Electrical stimulation of isolated muscle (fatigue resistance)
# Assay type: ex vivo tissue, mice
# Details: 50 μM in Krebs solution, 37° C., equilibrated three minutes, stimulation 330 ms/2-sec, 40 Hz; vs control solution
# Method: Mice were bred in a similar manner to that for the control group of Test Example 1. Thereafter, soleus muscle was removed from each mouse. The isolated soleus muscle was fixed to a transducer (FORT100, product of WPI) in 37° C. Krebs solution (aeration: 95%-oxygen, 5%-carbon dioxide). The effect of catechins on the isolated muscle was analyzed. Specifically, each of eight catechin species (catechin, epicatechin, gallocatechin, epigallocatechin, catechin gallate, epicatechin gallate, gallocatechin gallate, and epigallocatechin gallate) was dissolved in a Krebs solution to a concentration of 50 μM. Each muscle piece was equilibrated in each solution for three minutes, and electrically stimulated (330 ms/2-sec). The frequency of stimulation was 40 Hz. […] A Krebs solution to which no catechin species had been added was employed as a control solution.
row,SMILES,muscle force after 1 minute stimulation as fatigue index (ratio to muscle force at the start of electrical stimulation defined as 1)
1,O=C(O[C@@H]1Cc2c(O)cc(O)cc2O[C@@H]1c1cc(O)c(O)c(O)c1)c1cc(O)c(O)c(O)c1 [epigallocatechin gallate],improved muscle fatigue resistance
2,O=C(O[C@@H]1Cc2c(O)cc(O)cc2O[C@H]1c1cc(O)c(O)c(O)c1)c1cc(O)c(O)c(O)c1 [gallocatechin gallate],improved muscle fatigue resistance
3,O=C(O[C@@H]1Cc2c(O)cc(O)cc2O[C@@H]1c1ccc(O)c(O)c1)c1cc(O)c(O)c(O)c1 [epicatechin gallate],improved muscle fatigue resistance
